US20170334934A1, “Macrocyclic picolinamides as fungicides” (DOW AGROSCIENCES LLC, priority 2014, published 2017)
Read-outs that look alike come from different tables or passages of the source.

Legend:
[1] = tested on: Mycosphaerella graminicola; Anamorph: Zymoseptoria tritici; assay: Fungicidal activity: Leaf Blotch of Wheat (SEPTTR), wheat seedlings; assay type: in vivo; details: for pest or weed control at 121.5 g/ha: Low Volume (121.5 g/H)
Experimental: Example A: Evaluation of Fungicidal Activity: Leaf Blotch of Wheat (Mycosphaerella graminicola; Anamorph: Zymoseptoria tritici; Bayer Code […]) Technical grades of materials were dissolved in acetone, which were then mixed with nine volumes of water containing 110 ppm Triton X-100. The fungicide solutions were applied onto wheat seedlings using an automated booth sprayer to run-off. All sprayed plants were allowed to air dry prior to further handling. All fungicides were evaluated using the aforementioned method for their activity vs. all target diseases, unless stated otherwise. Wheat leaf blotch and brown rust activity were also evaluated using track spray applications, in which case the fungicides were formulated as EC formulations, containing 0.1% Trycol 5941 in the spray solutions. Wheat plants (variety Yuma) were grown from seed in a greenhouse in 50% mineral soil/50% soil-less Metro mix until the first leaf was fully emerged, with 7-10 seedlings per pot. These plants were inoculated with an aqueous spore suspension of Zymoseptoria tritici either prior to or after fungicide treatments. After inoculation the plants were kept in 100% relative humidity (one day in a dark dew chamber followed by two to three days in a lighted dew chamber at 20° C.) to permit spores to germinate and infect the leaf. The plants were then transferred to a greenhouse set at 20° C. for disease to develop. When disease symptoms were fully expressed on the 1st leaves of untreated plants, infection levels were assessed on a scale of 0 to 100 percent disease severity. Percent disease control was calculated using the ratio of disease severity on treated plants relative to untreated plants.

[2] = tested on: Puccinia triticina; assay: Fungicidal activity: Wheat Brown Rust (PUCCRT), wheat seedlings; assay type: in vivo; details: for pest or weed control at 121.5 g/ha: Low Volume (121.5 g/H); for pest or weed control at 100 µg/mL: High Volume (100 ppm)
Experimental: Technical grades of materials were dissolved in acetone, which were then mixed with nine volumes of water containing 110 ppm Triton X-100. The fungicide solutions were applied onto wheat seedlings using an automated booth sprayer to run-off. All sprayed plants were allowed to air dry prior to further handling. All fungicides were evaluated using the aforementioned method for their activity vs. all target diseases, unless stated otherwise. Wheat leaf blotch and brown rust activity were also evaluated using track spray applications, in which case the fungicides were formulated as EC formulations, containing 0.1% Trycol 5941 in the spray solutions. Wheat plants (variety Yuma) were grown from seed in a greenhouse in 50% mineral soil/50% soil-less Metro mix until the first leaf was fully emerged, with 7-10 seedlings per pot. These plants were inoculated with an aqueous spore suspension of Zymoseptoria tritici either prior to or after fungicide treatments. After inoculation the plants were kept in 100% relative humidity (one day in a dark dew chamber followed by two to three days in a lighted dew chamber at 20° C.) to permit spores to germinate and infect the leaf. The plants were then transferred to a greenhouse set at 20° C. for disease to develop. When disease symptoms were fully expressed on the 1st leaves of untreated plants, infection levels were assessed on a scale of 0 to 100 percent disease severity. Percent disease control was calculated using the ratio of disease severity on treated plants relative to untreated plants. Example B: Evaluation of Fungicidal Activity: Wheat Brown Rust (Puccinia triticina; Synonym: Puccinia recondita f. sp. tritici; Bayer Code PUCCRT) Wheat plants (variety Yuma) were grown from seed in a greenhouse in 50% mineral soil/50% soil-less Metro mix until the first leaf was fully emerged, with 7-10 seedlings per pot. These plants were inoculated with an aqueous spore suspension of Puccinia triticina either prior to or after fungicide treatments. After inoculation the plants were kept in a dark dew room at 22° C. with 100% relative humidity overnight to permit spores to germinate and infect the leaf. The plants were then transferred to a greenhouse set at 24° C. for disease to develop. Fungicide formulation, application and disease assessment followed the procedures as described in the Example A.

[3] = 24 h, 1 Day Protectant, wheat, read-out: SEPTTR disease control rating, 1DP
[4] = 72 h, 3 Day Curative, wheat, read-out: SEPTTR disease control rating, 3DC
[5] = 24 h, 1 Day Protectant, read-out: PUCCRT disease control rating, 1DP
[6] = 72 h, 3 Day Curative, read-out: PUCCRT disease control rating, 3DC
[7] = 24 h, High Volume (100 ppm), 1 Day Protectant, wheat, read-out: SEPTTR disease control rating, 1DP
[8] = 72 h, High Volume (100 ppm), 3 Day Curative, wheat, read-out: SEPTTR disease control rating, 3DC

SMILES	pest or weed control at 121.5 g/ha [1, 3] [%]	pest or weed control at 121.5 g/ha [1, 4] [%]	pest or weed control at 121.5 g/ha [2, 5] [%]	pest or weed control at 121.5 g/ha [2, 6] [%]	pest or weed control at 100 µg/mL ([1]; 24 h, read-out: SEPTTR disease control rating, 1DP) [%]	pest or weed control at 100 µg/mL ([1]; 72 h, read-out: SEPTTR disease control rating, 3DC) [%]	pest or weed control at 100 µg/mL [2, 5] [%]	pest or weed control at 100 µg/mL [2, 6] [%]	pest or weed control at 100 µg/mL [1, 7] [%]	pest or weed control at 100 µg/mL [1, 8] [%]
COc1ccnc(C(=O)N[C@H]2CCO[C@H](CC3CCCC3)[C@@H](Oc3ccccc3)[C@H](C)OC2=O)c1OCOC(C)=O [Compound 85]	> 70	> 70	> 70	> 70	–	–	–	–	–	–
CCCO[C@H]1[C@H](C)OC(=O)[C@@H](NC(=O)c2nccc(OC)c2O)CCO[C@@H]1Cc1ccc(F)cc1 [Compound 56, N-((2R,3S,4S,7S)-2-(4-fluorobenzyl)-4-methyl-6-oxo-3-propoxy-1,5-dioxonan-7-yl)-3-hydroxy-4-methoxypicolinamide]	–	–	–	–	> 70	> 70	> 70	> 70	–	–
C=C(C)CO[C@H]1[C@H](C)OC(=O)[C@@H](NC(=O)c2nccc(OC)c2O)CCO[C@@H]1CC [Compound 61]	–	–	–	–	–	–	> 70	> 70	< 70	> 70
C=CCO[C@H]1[C@H](C)OC(=O)[C@@H](NC(=O)c2nccc(OC)c2O)CCO[C@@H]1Cc1ccc(F)cc1 [Compound 55, N-((2R,3S,4S,7S)-3-(allyloxy)-2-(4-fluorobenzyl)-4-methyl-6-oxo-1,5-dioxonan-7-yl)-3-hydroxy-4-methoxypicolinamide]	–	–	–	–	–	–	> 70	> 70	> 70	> 70
COc1ccnc(C(=O)N[C@H]2CCOC[C@@H](Oc3ccccc3)[C@H](C)OC2=O)c1OC(C)=O [Compound 100]	< 70	> 70	> 70	> 70	–	–	–	–	–	–
COc1ccnc(C(=O)N[C@H]2CCOC[C@@H](OCc3ccccc3)[C@H](C)OC2=O)c1OCOC(C)=O [Compound 96]	< 70	> 70	> 70	> 70	–	–	–	–	–	–
CC[C@H]1OCC[C@H](NC(=O)c2nccc(OC)c2OC(C)=O)C(=O)O[C@@H](C)[C@@H]1OC(=O)C(C)C [Compound 95]	< 70	> 70	> 70	> 70	–	–	–	–	–	–
COc1ccc(C[C@H]2OCC[C@H](NC(=O)c3nccc(OC)c3O)C(=O)O[C@@H](C)[C@@H]2Oc2ccccc2)cc1 [Compound 60]	–	–	–	–	–	–	> 70	> 70	> 70	> 70
CC[C@H]1OCC[C@H](NC(=O)c2nccc(OC)c2O)C(=O)O[C@@H](C)[C@@H]1Oc1ccc(F)cc1 [Compound 64]	–	–	–	–	–	–	> 70	> 70	> 70	> 70
COc1ccnc(C(=O)N[C@H]2CCOC[C@@H](OCc3ccccc3)[C@H](C)OC2=O)c1O [Compound 66]	–	–	–	–	–	–	> 70	> 70	< 70	< 70
COc1ccnc(C(=O)N[C@H]2CCO[C@H](Cc3ccc(F)cc3)[C@@H](Oc3ccccc3)[C@H](C)OC2=O)c1OCOC(C)=O [Compound 73]	> 70	> 70	> 70	> 70	–	–	–	–	–	–
CC[C@H]1OCC[C@H](NC(=O)c2nccc(OC)c2OCOC(C)=O)C(=O)O[C@@H](C)[C@@H]1OCC(C)C [Compound 89]	> 70	> 70	> 70	> 70	–	–	–	–	–	–
COc1ccnc(C(=O)N[C@H]2CCOC[C@@H](OC(=O)C(C)C)[C@H](C)OC2=O)c1OCOC(C)=O [Compound 98]	< 70	< 70	< 70	< 70	–	–	–	–	–	–
CC[C@H]1OCC[C@H](NC(=O)c2nccc(OC)c2OCOC(C)=O)C(=O)O[C@@H](C)[C@@H]1Oc1ccccc1 [Compound 90]	> 70	> 70	> 70	> 70	–	–	–	–	–	–
COc1ccnc(C(=O)N[C@H]2CCO[C@H](Cc3ccc(F)cc3)[C@@H](Oc3ccccc3)[C@H](C)OC2=O)c1O [Compound 52]	–	–	–	–	–	–	> 70	> 70	> 70	> 70
COc1ccc(C[C@H]2OCC[C@H](NC(=O)c3nccc(OC)c3OCOC(C)=O)C(=O)O[C@@H](C)[C@@H]2OCC2CC2)cc1 [Compound 86]	> 70	< 70	> 70	> 70	–	–	–	–	–	–
COc1ccnc(C(=O)N[C@H]2CCO[C@H](CC3CCCC3)[C@@H](Oc3ccccc3)[C@H](C)OC2=O)c1O [Compound 58]	–	–	–	–	–	–	> 70	> 70	> 70	> 70
C=C(C)CO[C@H]1[C@H](C)OC(=O)[C@@H](NC(=O)c2nccc(OC)c2OCOC(C)=O)CCO[C@@H]1CC [Compound 88]	< 70	< 70	> 70	> 70	–	–	–	–	–	–
C=CCO[C@H]1[C@H](C)OC(=O)[C@@H](NC(=O)c2nccc(OC)c2OC(C)=O)CCO[C@@H]1Cc1ccc(F)cc1 [Compound 80]	< 70	< 70	< 70	< 70	–	–	–	–	–	–
COc1ccnc(C(=O)N[C@H]2CCO[C@H](Cc3ccc(F)cc3)[C@@H](OC(=O)C(C)C)[C@H](C)OC2=O)c1OCOC(C)=O [Compound 74]	> 70	> 70	> 70	> 70	–	–	–	–	–	–
C=C(C)CO[C@H]1[C@H](C)OC(=O)[C@@H](NC(=O)c2nccc(OC)c2OC(C)=O)CCO[C@@H]1CC [Compound 92]	< 70	< 70	> 70	> 70	–	–	–	–	–	–
COc1ccc(C[C@H]2OCC[C@H](NC(=O)c3nccc(OC)c3OCOC(C)=O)C(=O)O[C@@H](C)[C@@H]2Oc2ccccc2)cc1 [Compound 87]	> 70	< 70	> 70	> 70	–	–	–	–	–	–
CC[C@H]1OCC[C@H](NC(=O)c2nccc(OC)c2O)C(=O)O[C@@H](C)[C@@H]1OCC(C)C [Compound 62]	–	–	–	–	–	–	> 70	> 70	< 70	> 70
COc1ccnc(C(=O)N[C@H]2CCO[C@H](Cc3ccccc3)[C@@H](Oc3ccccc3)[C@H](C)OC2=O)c1OCOC(C)=O [Compound 82]	> 70	> 70	> 70	> 70	–	–	–	–	–	–
